According to US20230023092A1, “TREATMENT OF DEPRESSION AND OTHER VARIOUS DISORDERS WITH PSILOCYBIN” (COMPASS […], priority 2019, published 2023):

System: healthy subjects
Test: Phase 1 study: adverse events (TEAEs, MedDRA coded)
Format: in vivo, human
Description: A Phase 1 randomized, double-blind, placebo-controlled study to evaluate the effect of psilocybin on cognitive and emotional processing as compared to placebo in healthy volunteers was conducted. The study investigated the short-term (Day 7) and long-term (Day 28) effects of moderate (10 mg) and high doses (25 mg) of psilocybin on key domains of cognition, such as episodic memory, attention, working and spatial memory, social cognition and elements of executive function, including cognitive flexibility.
Each subject was assigned 1 treatment bottle containing 5 capsules packaged in a double-blind fashion, depending on the randomized treatment arm, the bottle contained one of the following: • a. Psilocybin 10 mg: 2×5-mg oral psilocybin capsules plus 3×placebo capsules • b. Psilocybin 25 mg: 5×5-mg oral psilocybin capsules • c. Placebo: 5×placebo capsules
Each 5-mg oral psilocybin capsules comprised 5 mg crystalline psilocybin in the form or Polymorph A, 12.5 mg of SMCC 50, 79.5 mg of SMCC 90, 1 mg sodium starch glycolate, 1 mg colloidal silicon dioxide, and 1 mg sodium stearyl fumarate
Adverse events: Throughout the course of the study, all AEs were monitored and recorded. Each AE was classified according to the following criteria: • i. […] Moderate: The AE produces some impairment of functioning, but is not hazardous to the subject's health. • iii. Severe: The AE produces significant impairment of functioning or incapacitation and is a definite hazard to the subject's health.
Visit 3 (V3): Drug Administration (Day 0): The subject was asked to eat a light breakfast at least two hours prior to coming to the clinic for study drug administration. On Day 0 (V3), the subject underwent the SSTS, had vital signs obtained, medications reviewed, AEs recorded and eligibility reviewed prior to being randomized to study drug. The study drug was administered to up to six subjects simultaneously in individual beds separated by a curtain. The subject was invited to put on eyeshades and headphones, lie down and listen to calming music for the rest of the session (six hours). The subject was supported 1:1 with a chaperone and supervised by the study psychiatrist and lead therapist.
During administration of psilocybin, each subject received one-on-one support from a trained assisting therapist and each dosing session was supervised by a study psychiatrist and a lead therapist. The study drug was administered simultaneously to up to six participants as a single 5-capsule oral dose (10 mg psilocybin: 2×5-mg psilocybin capsules plus 3×placebo capsules; 25 mg psilocybin: 5×5-mg psilocybin capsules; placebo: 5×placebo capsules). Twenty-five dosing sessions were completed, with up to six participants dosed simultaneously per session. Each session lasted approximately 6 to 8 hours with subjects encouraged to relax and engage in introspection for the duration. After the acute effects of the study drug had subsided, subjects were discharged.

CN(C)CCc1c[nH]c2cccc(OP(=O)(O)O)c12 [Psilocybin, psilocybin]
Illusion, Events (25 mg oral): 26 | Illusion, N (%) (25 mg oral): 18 (60.0) | Illusion, worst severity Mild, Events (25 mg oral): 4 | Illusion, worst severity Mild, N (%) (25 mg oral): 3 (10.0) | Illusion, worst severity Moderate, Events (25 mg oral): 12 | Illusion, worst severity Moderate, N (%) (25 mg oral): 10 (33.3) | Illusion, worst severity Severe, Events (25 mg oral): 7 | Illusion, worst severity Severe, N (%) (25 mg oral): 5 (16.7) | Infections and infestations, Events (25 mg oral): 4 | Infections and infestations, N (%) (25 mg oral): 4 (13.3) | Infections and infestations, worst severity Mild, Events (25 mg oral): 4 | Infections and infestations, worst severity Mild, N (%) (25 mg oral): 4 (13.3) | Infections and infestations, worst severity Moderate, Events (25 mg oral): 0 | Infections and infestations, worst severity Moderate, N (%) (25 mg oral): 0 | Infections and infestations, worst severity Severe, Events (25 mg oral): 0 | Infections and infestations, worst severity Severe, N (%) (25 mg oral): 0 | Investigations, Events (25 mg oral): 1 | Investigations, N (%) (25 mg oral): 1 (3.3) | Investigations, worst severity Mild, Events (25 mg oral): 1 | Investigations, worst severity Mild, N (%) (25 mg oral): 1 (3.3) | Investigations, worst severity Moderate, Events (25 mg oral): 0 | Investigations, worst severity Moderate, N (%) (25 mg oral): 0 | Investigations, worst severity Severe, Events (25 mg oral): 0 | Investigations, worst severity Severe, N (%) (25 mg oral): 0 | Memory impairment, Events (25 mg oral): 0 | Memory impairment, N (%) (25 mg oral): 0 | Mental fatigue, Events (25 mg oral): 3 | Mental fatigue, N (%) (25 mg oral): 3 (10.0) | Mood altered, Events (25 mg oral): 25 | Mood altered, N (%) (25 mg oral): 15 (50.0) | Mood altered, worst severity Mild, Events (25 mg oral): 3 | Mood altered, worst severity Mild, N (%) (25 mg oral): 2 (6.7) | Mood altered, worst severity Moderate, Events (25 mg oral): 7 | Mood altered, worst severity Moderate, N (%) (25 mg oral): 6 (20.0) | Mood altered, worst severity Severe, Events (25 mg oral): 9 | Mood altered, worst severity Severe, N (%) (25 mg oral): 7 (23.3) | Musculoskeletal and connective tissue disorders, Events (25 mg oral): 4 | Musculoskeletal and connective tissue disorders, N (%) (25 mg oral): 3 (10.0) | Musculoskeletal and connective tissue disorders, worst severity Mild, Events (25 mg oral): 3 | Musculoskeletal and connective tissue disorders, worst severity Mild, N (%) (25 mg oral): 2 (6.7) | Musculoskeletal and connective tissue disorders, worst severity Moderate, Events (25 mg oral): 1 | Musculoskeletal and connective tissue disorders, worst severity Moderate, N (%) (25 mg oral): 1 (3.3) | Musculoskeletal and connective tissue disorders, worst severity Severe, Events (25 mg oral): 0 | Musculoskeletal and connective tissue disorders, worst severity Severe, N (%) (25 mg oral): 0 | Nausea, Events (25 mg oral): 3 | Nausea, N (%) (25 mg oral): 3 (10.0) | Nervous system disorders, Events (25 mg oral): 43 | Nervous system disorders, N (%) (25 mg oral): 25 (83.3) | Nervous system disorders, worst severity Mild, Events (25 mg oral): 24 | Nervous system disorders, worst severity Mild, N (%) (25 mg oral): 16 (53.3) | Nervous system disorders, worst severity Moderate, Events (25 mg oral): 10 | Nervous system disorders, worst severity Moderate, N (%) (25 mg oral): 8 (26.7) | Nervous system disorders, worst severity Severe, Events (25 mg oral): 1 | Nervous system disorders, worst severity Severe, N (%) (25 mg oral): 1 (3.3) | Paraesthesia, Events (25 mg oral): 4 | Paraesthesia, N (%) (25 mg oral): 4 (13.3) | Paraesthesia, worst severity Mild, Events (25 mg oral): 3 | Paraesthesia, worst severity Mild, N (%) (25 mg oral): 3 (10.0) | Paraesthesia, worst severity Moderate, Events (25 mg oral): 1 | Paraesthesia, worst severity Moderate, N (%) (25 mg oral): 1 (3.3) | Paraesthesia, worst severity Severe, Events (25 mg oral): 0 | Paraesthesia, worst severity Severe, N (%) (25 mg oral): 0 | Psychiatric disorders, Events (25 mg oral): 135 | Psychiatric disorders, N (%) (25 mg oral): 29 (96.7) | Psychiatric disorders, worst severity Mild, Events (25 mg oral): 5 | Psychiatric disorders, worst severity Mild, N (%) (25 mg oral): 4 (13.3) | Psychiatric disorders, worst severity Moderate, Events (25 mg oral): 45 | Psychiatric disorders, worst severity Moderate, N (%) (25 mg oral): 16 (53.3) | Psychiatric disorders, worst severity Severe, Events (25 mg oral): 27 | Psychiatric disorders, worst severity Severe, N (%) (25 mg oral): 9 (30.0) | Psychomotor skills impaired, Events (25 mg oral): 0 | Psychomotor skills impaired, N (%) (25 mg oral): 0 | Respiratory, thoracic and mediastinal disorders, Events (25 mg oral): 3 | Respiratory, thoracic and mediastinal disorders, N (%) (25 mg oral): 3 (10.0) | Selected TEAE: Nervous system disorders, Events (25 mg oral): 0 | Selected TEAE: Nervous system disorders, N (%) (25 mg oral): 0 | Selected TEAE: Psychiatric disorders, Events (25 mg oral): 106 | Selected TEAE: Psychiatric disorders, N (%) (25 mg oral): 27 (90.0) | Somatic hallucination, Events (25 mg oral): 6 | Somatic hallucination, N (%) (25 mg oral): 5 (16.7) | Somatic hallucination, worst severity Mild, Events (25 mg oral): 2 | Somatic hallucination, worst severity Mild, N (%) (25 mg oral): 2 (6.7) | Somatic hallucination, worst severity Moderate, Events (25 mg oral): 2 | Somatic hallucination, worst severity Moderate, N (%) (25 mg oral): 2 (6.7) | Somatic hallucination, worst severity Severe, Events (25 mg oral): 2 | Somatic hallucination, worst severity Severe, N (%) (25 mg oral): 1 (3.3) | Substance-induced psychotic disorder, Events (25 mg oral): 1 | Substance-induced psychotic disorder, N (%) (25 mg oral): 1 (3.3) | Tension headache, Events (25 mg oral): 6 | Tension headache, N (%) (25 mg oral): 6 (20.0) | Tension headache, worst severity Mild, Events (25 mg oral): 4 | Tension headache, worst severity Mild, N (%) (25 mg oral): 4 (13.3) | Tension headache, worst severity Moderate, Events (25 mg oral): 2 | Tension headache, worst severity Moderate, N (%) (25 mg oral): 2 (6.7) | Tension headache, worst severity Severe, Events (25 mg oral): 0 | Tension headache, worst severity Severe, N (%) (25 mg oral): 0 | Time perception altered, Events (25 mg oral): 6 | Time perception altered, N (%) (25 mg oral): 6 (20.0) | Time perception altered, worst severity Mild, Events (25 mg oral): 2 | Time perception altered, worst severity Mild, N (%) (25 mg oral): 2 (6.7) | Time perception altered, worst severity Moderate, Events (25 mg oral): 4 | Time perception altered, worst severity Moderate, N (%) (25 mg oral): 4 (13.3) | Time perception altered, worst severity Severe, Events (25 mg oral): 0 | Time perception altered, worst severity Severe, N (%) (25 mg oral): 0 | Adverse events reported by % of subjects (25 mg oral, 12-week study): 96.7% | Reported 'Mood altered' events: Being less judgmental (number) (25 mg psilocybin (n = 30)): 0 | Reported 'Mood altered' events: Calm (number) (25 mg psilocybin (n = 30)): 0 | Reported 'Mood altered' events: Clarity of thought (number) (25 mg psilocybin (n = 30)): 1 | Reported 'Mood altered' events: Contemplative state (number) (25 mg psilocybin (n = 30)): 1 | Reported 'Mood altered' events: Feeling more moody/sensitive (number) (25 mg psilocybin (n = 30)): 0 | Reported 'Mood altered' events: Feeling of adrenaline release (number) (25 mg psilocybin (n = 30)): 0 | Reported 'Mood altered' events: Feeling rested (number) (25 mg psilocybin (n = 30)): 0 | Reported 'Mood altered' events: Increased compassion (number) (25 mg psilocybin (n = 30)): 1 | Reported 'Mood altered' events: Increased creativity (number) (25 mg psilocybin (n = 30)): 1 | Reported 'Mood altered' events: Increased empathy (number) (25 mg psilocybin (n = 30)): 2 | Reported 'Mood altered' events: Increased sense of connectedness (number) (25 mg psilocybin (n = 30)): 1 | Reported 'Mood altered' events: Increased wit (number) (25 mg psilocybin (n = 30)): 0 | Reported 'Mood altered' events: Introspection (number) (25 mg psilocybin (n = 30)): 8 | Reported 'Mood altered' events: Laughter (number) (25 mg psilocybin (n = 30)): 1 | Reported 'Mood altered' events: More socially upbeat (number) (25 mg psilocybin (n = 30)): 1 | Reported 'Mood altered' events: Negative mood (number) (25 mg psilocybin (n = 30)): 0 | Reported 'Mood altered' events: Reflections (number) (25 mg psilocybin (n = 30)): 4 | Reported 'Mood altered' events: Saw themselves from a new perspective (number) (25 mg psilocybin (n = 30)): 1 | Reported 'Mood altered' events: Sense of oneness (number) (25 mg psilocybin (n = 30)): 2 | Reported 'Mood altered' events: Sense of openness (number) (25 mg psilocybin (n = 30)): 0 | Reported 'Mood altered' events: Unusual appreciation of music (number) (25 mg psilocybin (n = 30)): 0 | Adverse events that appeared and resolved on day 0 (day of dosing) (all adverse events, all arms): 67% | 'mood altered' AEs positive or neutral in nature (all arms): 96% | Median duration of adverse events (all treatment arms, 12-week trial): one | Incidence of Illusion, Hallucination (visual), Mood altered, Headache, Fatigue and Euphoric mood compared to placebo (both 10 and 25 mg): higher | Adverse events likely to be psychedelic in nature resolved on the day of onset or within a day of onset (human, in vivo, oral, 12 weeks): 92%
